Reference: US8853227B2, “Methotrexate adjuvants to reduce toxicity and methods for using the same” (Tosk, Incorporated, priority 2008, dated 2014)

Columns and labels:
[1] = Mouse Study I (protection from MTX-induced weight loss, LPS/MTX model); assay type: in vivo, C57BL/6 mice; conditions: 10 or 30 mg/kg ip 3 hr before and after MTX, LPS+MTX; p<0.004 (10 mg/kg), p<0.0005 (30 mg/kg) vs LPS+MTX
Protocol: C57BL/6 mice (10 animals/treatment group) were dosed on Day 1 with LPS (5 μg, i.p.). On Day 2, the animals were treated with 200 mg/kg MTX+10 or 30 mg/kg TK-112690 3 hr before and 3 hr after the MTX treatment. On Day 3, the animals were dosed MTX 100 mg/kg+10 or 30 mg/kg TK±3 hr. On day 8, the Day 8-Day 1 weight was determined and results subject to ANOVA. Group 1=saline alone, Group 2=MTX alone, Group 3=LPS alone, Group 4=MTX+LPS, Group 5=10 mg/kg TK-112690+MTX+LPS or Group 6=30 mg/kg TK-112690+MTX+LPS.
This mouse model is modified from a published procedure (de Koning et al., Int Immunol 18: 941 (2006)). Mice are treated on day one with a single intraperitoneal (ip) dose of lipopolysaccharide (LPS), followed by two consecutive days with 200 and 100 mg/kg ip methotrexate, respectively. Controls include saline alone for days 1, 2, and 3, saline on day 1 plus MTX on days 2 and 3 and LPS on day one with saline injection on days 2 and 3. Experimental groups are given LPS on day one and 10 or 30 mg/kg, TK-112690, a representative 2,2′-anhydropyrimidine test article, ip 3 hours before, and 3 hours after, methotrexate injection on days 2 and 3. Animal weights are measured every day after the first injection with experiment termination five days after the second methotrexate injection (day 8). Weight loss is representative of MTX-induced toxicity, and one aspect of MTX-induced mucositis. […]

[2] = Mouse Study VI (plasma uridine and TK-112690 following TK-112690 treatment); assay type: in vivo, CD-1 female mice
Protocol: In this study, CD-1 female mice were injected ip with 120 mg/kg TK-112690 and plasma from the animals analyzed by HPLC using UV detection for TK-112690 and uridine. Concentrations of uridine and TK-112690 in plasma samples collected 0.08, 0.50, 1, 2, 4 or 12 hours post TK-112690 injection were determined by HPLC using UV detection. […] An increase in plasma uridine was noted almost immediately following administration of TK-112690. At 0.5 hour post TK-112690 dose, a 100 μg/mL plasma concentration TK-112690 is associated with a plasma uridine concentration of approximately 2 μg/mL of uridine (baseline uridine concentration approximately 0.5 μg/mL). As expected, inhibition of UPase by TK-112690 results in elevation of plasma uridine.
Plasma uridine concentration was determined by HPLC using UV detectionafter animals were treated with TK-112690 as follows. TK-112690 was dissolved in PBS to achieve a concentration of 500 mg/mL. CD-1 female mice were injected ip with a range of TK-112690 doses (0, 15, 30, 60 and 120 mg/kg) and plasma from the animals analyzed for TK-112690 uridine concentrations expected to be elevated through UPase inhibition by TK-112690. Plasma uridine concentrations were determined from plasma samples collected 0.08, 0.50, 1, 2, 4 or 12 hours post TK-112690 injection.
HPLC analysis was done at room temperature using a ThermoFinnigan Spectra System equipped with degasser, pump, autosampler and UV detector. Chromatograms will be constructed from a chart recorder equipped with a pen. […]
The micromolar concentration of plasma uridine was determined by linear equation (y=mx+b) generated from uridine and 5-FU calibration curve. The y value is calculated by taking ratio of peak heights (mm) of uridine and 5-FU. All peak heights from HPLC chromatograms were measured in millimeters using a ruler.
An identical approach was employed to quantitate TK-112690 in the samples except the response for TK-112690 was attenuated by a response factor determined from the injection into the HPLC of identical amounts of TK-112690 and uridine, […]

Cc1cn2c(nc1=O)O[C@H]1[C@H](O)[C@@H](CO)O[C@H]12 [TK-112690, 2,2′-anhydro-5-methyluridine]
protection from MTX-induced weight loss (Day 8-Day 1 mean weight change) [1]: highly significant | dose dependence of plasma concentrations of TK-112690 ([2]; 0, 15, 30, 60 and 120 mg/kg ip): increased with increasing doses | plasma uridine concentration ([2]; 0.5 hour post TK-112690 dose, at 100 μg/mL plasma TK-112690, baseline approximately 0.5 μg/mL): approximately 2 μg/mL | concentration at 0.5 h ([2]; female, CD-1, plasma, 120 mg/kg, 0.5 hour post TK-112690 dose, ip, mouse): 100 µg/mL
